Reference: patent US20020048585A1, “Methods of modulating wound healing and angiogenesis” (priority 2000, published 2002)

Test system: primary skin fibroblasts
Experiment: In vitro wound closure (migration) test in confluent fibroblast cultures
Assay type: cell-based, mouse
Conditions: medium (DMEM with 2% FBS) supplemented with 25 ng/ml; syndecan-4+/+, +/- and -/- fibroblasts
Method: Primary skin fibroblasts were isolated from newborn syndecan-4+/+, syndecan-4+/−, and syndecan-4−/− mice from the same litter. Mice were sacrificed, and their skins were removed, flattened, and floated on a 0.25% trypsin solution (Life Technologies Inc., Gaithersburg, Md., USA) at 4° C. overnight. The dermis was separated from the epidermis and dissociated by stirring at room temperature for 30 minutes in HBSS containing collagenase (500 μg/ml) (Life Technologies Inc.). The cell suspension of each skin was passed through a cell strainer (Becton Dickinson and Co., Franklin Lakes, N.J., USA) and transferred to a 10-cm cell culture dish and cultured as described previously (Saoncella et al.1999. Proc. Natl. Acad. Sci. USA. 96:2805-2810). Dermal fibroblasts were maintained at subconfluent densities and used between passages three and six.
Primary fibroblast cultures were established for 2 days in DMEM with 10% FBS followed by an overnight culture in DMEM with 2% FBS. In vitro wound closure tests were performed by creating clear lines in confluent cultures with a sterile yellow plastic pipette tip. After two washes with medium, the monolayers were covered with fresh medium and the migration of the cells into the cleared spaces was monitored over time. The control medium used during wound closure was DMEM with 2% FBS. […]

| Substance | rate of wound closure |
| --- | --- |
| EGF: growth factor (Becton Dickinson) added to culture medium (NSDSECPLSHDGYCLHDGVCMYIEALDKYACNCVVGYIGERCQYRDLKWWELR; Epidermal growth factor; UniProt P01133 971-1023, looked up) | did not alter the rate of wound closure |
| FGF-2: growth factor, ligand of the FGF-2 receptor (R&D Systems), added to culture medium | did not alter the rate of wound closure |
